Source: patent publication US11160770B2, “Compounds, compositions and methods for treating oxidative DNA damage disorders” (Indiana University Research and Technology Corporation, priority 2011, dated 2021)

Experiments:
sensory neurons = test: Capsaicin-evoked iCGRP release from sensory neurons after ionizing radiation; type: cell-based, rat
Method: EXAMPLE. Cell Cultures. Neuronal cultures were prepared from adult male (150-175 g) Sprague-Dawley rats (Harlan, Indianapolis, Ind.) as described in the published literature. Briefly, hippocampal cells were dissociated using papain and mechanical agitation and separated by gradient centrifugation. The pellet of cells from a discontinuous gradient of Optiprep in L-15 media was washed then resuspended in 1 mL of growth media consisting of Neurobasal Medium supplemented with 0.5 mM L-glutamine, 2% B-27 Supplement minus AO, 50 mg/mL Penicillin-Streptomycin, and 5 ng/mL of Basic Fibroblast Growth Factor (BFGF). Approximately 60,000 cells were plated onto poly-D-lysine and laminin coated plates and grown for 6-14 days in 5% CO2 at 37° C. Growth medium was changed every other day. For sensory neuronal culture, cells were dissociated using collagenase and mechanical dissociation. Approximately 30,000 DRG cells were plated into each well of 12 well culture plates or onto Lab-Tek chamber slides all precoated with poly-D-lysine and laminin. […]
For release studies, the sensory neuronal cultures were washed once with HEPES buffer consisting of (in mM) 25 HEPES, 135 NaCl, 3.5 KCl, 2.5 CaCl2, 1 MgCl2, 3.3 D-glucose, and 0.1% bovine serum albumin, pH 7.4 and maintained at 37° C. […] After each incubation, the buffer was removed and the amount of CGRP in each sample was measured using radioimmunoassay as previously described. […] Total content was calculated by adding the total amount released in all incubations to the amount measured in the cells. The release data is calculated as fmol released/well/[…] or as a % of the total peptide content in the cells. […]
EXAMPLE. […] For these studies, the initially determined effects of exposing neuronal cultures to single or multiple doses of 10 Gy of IR on the content and release of iCGRP. 24 h after exposing sensory neurons to either one or two once-daily doses of 10 Gy, there was no significant effect on resting or capsaicin-evoked iCGRP release (as measured in fmol released/well of cells/10 min) or on the total content of CGRP in the cultures. […]

DRG cells = test: FACS apoptosis assay in cisplatin treated DRG cells; type: cell-based; details: cisplatin 50 μM, E3330 50 μM co-treatment, 3 days
Method: EXAMPLE. DRG cells are treated with cisplatin (50 μM), with and without co-treatment with E3330 (50 μM), for 3 days. The cells are evaluated by FACS assay and compared to control.

CCCCCCCCC/C(=C\C1=C(C)C(=O)C(OC)=C(OC)C1=O)C(=O)O [Example 28]
capsaicin-evoked iCGRP release after radiation (sensory neurons; 10 μM or 20 μM E3330, 3 doses of 10 Gy, 30 nM capsaicin, 24 h after last dose): completely blocked the effects of radiation on peptide release
capsaicin-evoked iCGRP release in control cells (sensory neurons; 10 μM or 20 μM E3330, no radiation, 30 nM capsaicin): did not alter capsaicin-evoked release in control cells
evoked release of iCGRP (sensory neurons; 20 μM E3330, APE1 knock-down and 266-177 overexpression, 10 Gy per day for three days): 5.9±0.5 % of total content
apoptosis arising from cisplatin treatment (DRG cells): decrease apoptosis
